One block for each compound: values may come before it.
What was measured:
[1] = Release test on fabric swatches after washing or dyeing (retention of active), absorbance at 280 nm; type: physicochemical
Method: This Example provides exemplary release tests on fabrics from yarns of the disclosure. These release measurements were performed on small swatches of fabric produced from yarn of the disclosure, and washed or otherwise stressed before release testing. Release was used to quantify how much active is retained intact after the stress. No coating was necessary for this test. Retention of active through stresses such as washes and scouring is a key distinguishing benefit of yarns of this disclosure and enables medicated fabrics that can be applied in a wide range of applications that demand washability in order to be commercially viable.
(§1) Aspirin (acetylsalicylic acid) was ground to a fine powder and dispersed at 25% wt/wt in Novagard 200-260. This was imbibed into a texturized 70 Denier nylon yarn, then plied with a textured 70 Denier nylon yarn. The yarn was then knitted into several sleeves.
Washing with hot detergent water was then done once (on swatch #2), 5 times (swatch #3), or 10 times (swatch #4). Swatch #1 was the control with zero washings. Each swatch, a fixed 1-inch square, was placed in water for release, and after two days the absorbance measured at 280 nanometers.
Another sleeve was dyed using a standard dyeing process, which included scouring at the upper limit of the normal range of temperatures in dyeing, namely 220° F. for 45 minutes. […] Over 50% potency was retained through this intense process.

[2] = Informal wear test of aspirin sleeve; type: in vivo; details: sleeve worn on the elbow or knee
From the text: as §1

[3] = Use testing of allantoin-loaded yarn; type: in vivo; details: 25% in RTV imbibed into 40 Denier texturized nylon yarn
From the text: Allantoin, which is frequently used as an active in skin creams, was dispersed in RTV at 25%, and this matrix imbibed into a 40 Denier texturized nylon yarn. Some of this was plied with a 40 Denier nylon yarn. Another portion was air-covered with a spandex yarn.

[4] = Franz cell transdermal delivery test
Method: This was then tested in a Franz cell apparatus (Zyleris Pharmatech) for its ability to deliver the active (arecoline) transdermally.
The test article, in this case the aforementioned arecoline-loaded fabric, was placed atop a small piece of freshly excised skin, in this case from a pig's ear; below the skin was a reservoir containing bovine serum albumin buffer to simulate blood plasma. In order to reach the reservoir, the active had to diffuse transdermally across the layer of skin. Three such Franz cells were used so that the experiment was done in triplicate. A small aliquot was drawn from each reservoir at the 24-hour point and tested for arecoline as now described.
A reference arecoline solution was prepared by dissolving approximately 3 milligrams arecoline hydrobromide (ScienceLab.com) in approximately 0.5 milliliters of bovine serum albumin buffer, for an approximate concentration of about 6 milligrams/milliliter. The reference solution was spotted alongside all three samples (labelled R7, R8 and R9) on a TLC plate at the origin. After driving out the water from the spots with heat, the spotted TLC plate was allowed to cool, then developed in 100% methanol inside a developing tank. […]

[5] = typical topical cream, depending on the severity of pain; cited from earlier work

Absorbance (at 280 nm) ([1]; 1 wash with hot detergent water, 1-inch square swatch in water, two days): 0.077 | Absorbance (at 280 nm) ([1]; 5 washes with hot detergent water, 1-inch square swatch in water, two days): 0.038 | Absorbance (at 280 nm) ([1]; 10 washes with hot detergent water, 1-inch square swatch in water, two days): 0.045 | Absorbance (at 280 nm) ([1]; Control (0 washes), 1-inch square swatch in water, two days): 0.097 | Absorbance (at 280 nm) ([1]; Dyed (scouring at 220° F. for 45 minutes)): 0.051 | retention of the active ([1]; after 10 washings): about 45% | potency retained ([1]; after standard dyeing process, scouring 220° F. for 45 minutes): Over 50%
SMILES: CC(=O)Oc1ccccc1C(=O)O [Aspirin, acetylsalicylic acid]
analgesia (in words) [2]: significant analgesia

SMILES: NC(=O)NC1NC(=O)NC1=O (stereo not drawn) [Allantoin]
skin effect (in words) [3]: skin-soothing, softening effect

SMILES: COC(=O)C1=CCCN(C)C1 [arecoline]
concentration of arecoline in the reservoirs ([4]; 24-hour point, uncoated fabric of polyester yarn imbibed with 10% arecoline hydrobromide in Novagard 200-260, TLC spot intensity vs reference): ~5 milligrams/milliliters | transdermal delivery (in words) ([4]; pig ear skin Franz cell model, imbibed yarn): effective

SMILES: COc1cc(CNC(=O)CCCC/C=C/C(C)C)ccc1O [capsaicin]
effective daily dose for relief in the foot, ankle, and calf [5]: 0.5 to 6 mg

Reference: patent US10799464B2, “Delivery systems” (Textile-Based Delivery, Inc., priority 2014, dated 2020)
